Consider two compounds from US4785005A, “6-(6-alkylpyridone)-carbostyril compounds and their cardiotonic uses” (Rorer Pharmaceutical Corporation, priority 1986, dated 1988).

Each structure is given as a SMILES string.

Assay [1] deals with anesthetized dog (myocardial contractile force, heart rate, arterial pressure, aortic flow). Briefly: Ganglionic-beta blocked anesthetized dog procedure. Format: in vivo. The following applies: for ED50: Canis lupus familiaris, iv, read-out: inotropic ED50. As to the method:
Adult mongrel dogs of either sex weighing 10 to 16 kg are fasted overnight, anesthetized with pentobarbital sodium 35 mg/kg, i.v. intubated, respired with room air using a Harvard respirator, and instrumented surgically to monitor myocardial contractile force, heart rate, arterial pressure, aortic flow and EKG limb lead II. The aforesaid measurements are recorded continously on a strip chart recorder.
Myocardial contractile force is monitored by a a Walton-Brodie strain gauge sutured to the left ventricular myocardium parallel to the left anterior descending coronary artery. Arterial pressure is measured using a fluid-filled catheter attached to a pressure transducer introduced via the right femoral artery and positioned in the thoracic aorta. Mean arterial pressure is determined by electronically clamping the pulsatile pressure signal. Aortic flow is monitored using a precalibrated, noncannulating electromagnetic flow probe positioned around the thoracic aorta. Heart rate is monitored using a cardiotachometer triggered by the QRS complex of the limb lead II EKG. The right femoral vein is cannulated for intravenous infusion of drugs. Body temperature is maintained at 37±1° C.
Following a 30 min postsurgical stabilization period, control values are recorded. Myocardial depression is induced by ganglionic and beta receptor blockade. Initially, the responsiveness of the autonomic nervous system is assessed by performing a 30 sec bilateral carotid occlusion (BCO). Ten minutes later, a saline solution of isoproterenol 0.3 mcg/kg i.v. is administered to assess beta receptor integrity. Ten minutes after that, a saline solution of mecamylamine 2 mg/kg i.v. is infused, followed by a saline solution of propranolol 1 mg/kg i.v. plus 0.3 mg/kg/hr. […] Ten minutes later, the test compound or vehicle is administered intravenously in ascending doses at 30 min intervals at […] in a total volume of 3.5 ml. On completion of the experiment, both BCO and isoproterenol challenges are repeated to verify ganglionic and beta blockade.
Solutions of the most preferred compound of the present invention, 6-[3'-cyano-6'-methyl-2'-oxo(1H)pyridin-5'-yl]-3,4-dihydrocarbostyril, and milrinone, 3-cyano-6-methyl-5-(4-pyridyl)-pyridin-2-one, were administered intravenously in accordance with the procedure described above. The solutions were prepared by dissolution in PEG 200 followed by serial saline dilution to yield test doses. Test solutions of 6-[3'-cyano-6'-methyl-2'-oxo(1H)pyridin-5'-yl]-3,4-dihydrocarbostyril were prepared at doses of 3, 10 and 30 mcg (expressed as base) per kg, and solutions of milrinone were prepared at test doses of 30, 100 and 300 mcg/kg.

For assay [2], the system named is Peak III cAMP phosphodiesterase. Briefly: Inhibition of Peak III cAMP phosphodiesterase activity. Format: biochemical, dog. The following applies: fold more potent than milrinone. From the text: The following in vitro method is another means for measuring the inotropic potency of the present compounds. This method is a modification of the enzyme inhibition method reported by Thompson, W. J. and Appleman, M. M., "Characterization of Cyclic Nucleotide Phosphodiesterase of Rat Tissue," J. Biological Chemistry, Vol. 246, pp. 3145-3150 (1971); and Thompson, W. J., Brooker, G. and Appleman, M. M., "Assay of Cyclic Nucleotide Phosphodiesterase with Radioactive Substrates," Methods in Enzymology, Vol. 38, pp. 205-212 (1974); and is believed to correlate to in vivo intropic activity in humans.
The test compounds are included in media comprising a radioactively labeled substrate (^3 H-cyclic nucleotide) such as adenosine 3':5'-monophosphate (cyclic AMP) and guanosine-3':5'-monophosphate(cyclic GMP), and a non-rate-limiting amount of 5'-nucleotidease isolated from a dog heart. The inhibition of the enzyme hydrolysis of the 5'-nucleotide product of the cNUC-PDEase to the corresponding nucleoside is measured by separating the charged, unhydrolyzed substrate from the uncharged hydrolysis product. Separation may be acheived either chromatographically from the uncharged nucleoside product of the assay with ion-exchange resin or preferentially quenched with the ion-exchange resin so that it is not quantitated with the liquid scintillation counter.

Setting [3] is: 100 mcg/kg i.v., ganglionic-beta blocked anesthetized dog.
[4] abbreviates: ganglionic-beta blocked anesthetized dog.
Setting [5] is: 30 mcg/kg i.v., ganglionic-beta blocked anesthetized dog.

For the compound `Cc1[nH]c(=O)c(C#N)cc1-c1ccncc1` [milrinone, 3-cyano-6-methyl-5-(4-pyridyl)-pyridin-2-one, reference compound], in assay [1] (setting [3]), the “increase in contractile force” value is recorded as 111% and the “increase in heart rate” value is 19%. Also, in assay [1] (setting [4]), the ED50 (commonly the dose that gives a 50% effect, or the effect in half of the subjects) turned out to be 0.05 mg/kg. For the same compound, the “maximum decrease of mean arterial pressure” value in assay [1] (i.v., dose-related, sustained, doses of 30, 100 and 300 mcg/kg tested) is reported as 32%. Moreover, the “increase in aortic blood flow (in words)” value in assay [1] (i.v., doses of 30, 100 and 300 mcg/kg tested) is “only transiently at low dose”.

In the case of `Cc1[nH]c(=O)c(C#N)cc1-c1ccc2c(c1)CCC(=O)N2` [6-[3'-Cyano-6'-methyl-2'-oxo(1H)pyridin-5'-yl]-3,4-dihydrocarbostyril], in assay [1] (setting [5]), the “increase in contractile force (maximum)” value was determined as 97% and the “increase in heart rate” value was found to be 17%. Also, the ED50 in assay [1] (setting [4]) was 0.016 mg/kg. The arterial blood pressure result in assay [1] (i.v., at the doses tested (3, 10 and 30 mcg/kg)) is on record as “not altered”. The “increase in aortic blood flow (maximum)” value in assay [1] (i.v., doses of 3, 10 and 30 mcg/kg tested) stood at 51%. In addition, in assay [2], the “potency in Peak III phosphodiesterase inhibition relative to milrinone” value is on record as “about twelve”.
